Here are results for 1 compound from article PMC3134342 (Journal of Experimental Botany, 2011).

In assay [1] the target is T1, At-A/N-InvA (Arabidopsis thaliana, UniProt Q9FXA8).
T1 sequence (Q9FXA8 79-616): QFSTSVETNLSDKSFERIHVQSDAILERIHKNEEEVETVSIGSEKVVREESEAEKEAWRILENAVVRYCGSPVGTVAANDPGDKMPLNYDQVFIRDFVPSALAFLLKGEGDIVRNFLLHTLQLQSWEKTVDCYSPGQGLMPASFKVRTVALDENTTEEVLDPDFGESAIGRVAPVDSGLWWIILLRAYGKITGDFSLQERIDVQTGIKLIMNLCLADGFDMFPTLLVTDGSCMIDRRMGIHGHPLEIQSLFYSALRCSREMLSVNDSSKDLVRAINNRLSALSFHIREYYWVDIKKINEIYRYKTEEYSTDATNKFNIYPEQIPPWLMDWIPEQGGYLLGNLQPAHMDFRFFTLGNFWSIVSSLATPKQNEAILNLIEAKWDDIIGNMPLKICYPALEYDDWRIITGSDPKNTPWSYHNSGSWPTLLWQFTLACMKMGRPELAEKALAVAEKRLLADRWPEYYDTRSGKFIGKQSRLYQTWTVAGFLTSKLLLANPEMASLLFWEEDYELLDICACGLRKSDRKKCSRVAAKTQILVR
The assay can be described thus: inhibition of sucrose hydrolysis, fructose by HPAEC-PAD. The settings on record: 100 mM sucrose, 50 mM potassium phosphate, pH 8.2, 30 °C. In kind it is biochemical.

Assay [2] has as its target T2, At-A/N-InvG (Arabidopsis thaliana, UniProt Q9LQF2).
T2 sequence (Q9LQF2 1-551): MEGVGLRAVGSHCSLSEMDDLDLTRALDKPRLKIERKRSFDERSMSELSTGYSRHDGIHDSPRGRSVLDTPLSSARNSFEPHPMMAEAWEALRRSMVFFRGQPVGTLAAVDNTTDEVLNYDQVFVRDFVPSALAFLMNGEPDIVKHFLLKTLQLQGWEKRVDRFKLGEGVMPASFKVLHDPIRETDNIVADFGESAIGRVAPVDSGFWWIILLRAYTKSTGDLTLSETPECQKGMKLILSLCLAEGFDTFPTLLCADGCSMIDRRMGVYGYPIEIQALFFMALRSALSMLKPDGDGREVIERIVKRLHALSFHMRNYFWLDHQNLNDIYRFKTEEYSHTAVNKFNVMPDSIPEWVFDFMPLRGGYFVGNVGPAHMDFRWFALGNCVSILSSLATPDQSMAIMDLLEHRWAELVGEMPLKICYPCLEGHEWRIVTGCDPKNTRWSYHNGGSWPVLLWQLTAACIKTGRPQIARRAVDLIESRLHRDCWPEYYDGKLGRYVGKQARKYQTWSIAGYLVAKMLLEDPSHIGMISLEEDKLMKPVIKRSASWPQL
The description is as above. In kind it is biochemical.

Structures are written as SMILES.

As for `NC(CO)(CO)CO` [TRIS], the “activity vs TRIS concentration” value in assay [1] is on record as “A typical inhibitory effect of TRIS on At-A/N-InvA activity was found”. Also, the IC50 in assay [2] was in the range of 25 to 30 mM.
